Data reported in patent publication US6914045B2, “Glycopeptide antibiotics” (Wyeth Holdings Corporation, priority 2001, dated 2005).
In brackets after ≈: the same amount, converted by molar mass.

Tests used:
Assay in all cases: in vitro antibacterial evaluation, MIC by broth dilution
Format in all cases: cell-based
Streptococcus sp. = conditions: broth dilution, 18 hours at 35° C.
Summary of the method: (§1)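 Broth dilution per NCCLS M7-A2 in Mueller-Hinton II medium, inoculum 5×10^5 CFU/mL, antibiotic range 64-0.06 μg/mL. MIC taken as lowest concentration inhibiting growth; Gram-positive panel includes recent clinical isolates resistant to methicillin, penicillin and/or vancomycin.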

Escherichia coli = conditions: 18 hours at 35° C.
Summary of the method: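 Step 1: dilute antibiotic across 64-0.06 μg/mL in Muller-Hinton II […]. Step 2: inoculate at 5×10^5 CFU/mL.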

Staphylococcus sp. = conditions: broth dilution, 18 hours at 35° C.
Summary of the method: as §1

Enterococcus sp. = conditions: broth dilution, 18 hours at 35° C.
Summary of the method: as §1

Structure (SMILES): CC(C)C(=O)OCC1OC(OC2C(CO)OC(Oc3ccc(CC4NC(=O)C(Cc5ccccc5)NC(=O)CNC(=O)C(CO)NC(=O)C(C(O)C5CNC(=N)N5C5OC(CO)C(O)C(O)C5O)NC(=O)C(C(O)C5CNC(=N)N5)NC4=O)cc3)C(O)C2O)C(O)C(O)C1O (centres unmarked) [Example 283a, Cyclo[glycylphenylalanyl-O-[4-O-[6-O-(2-methylpropanoyl)-hexopyranosyl]hexopyranosyl]tyrosyl-3-(2-iminoimidazolidin-4-yl)seryl-3-(3-hexopyranosyl-2-iminoimidazolidin-4-yl)seryliseryl]]
- MIC Streptococcus pneumoniae (ATCC 6301) (Streptococcus sp.; strain ATCC 6301): 16 µg/mL (≈ 11.8 µM)
- MIC Streptococcus pneumoniae (GC 1894) (Streptococcus sp.; strain GC 1894): 16 µg/mL (≈ 11.8 µM)
- MIC Streptococcus pyogenes (GC 4563) (Streptococcus sp.; strain GC 4563): 64 µg/mL (≈ 47.4 µM)
- MIC Streptococcus agalactiae (GC 4564) (Streptococcus sp.; strain GC 4564): 64 µg/mL (≈ 47.4 µM)
- MIC Streptococcus pneumoniae (GC 4565) (Streptococcus sp.; strain GC 4565): 16 µg/mL (≈ 11.8 µM)
- MIC Escherichia coli (ATCC 25922) (Escherichia coli; Escherichia coli (ATCC 25922)): 128 µg/mL (≈ 94.7 µM)
- MIC Escherichia coli (GC 4559) (Escherichia coli; Escherichia coli (GC 4559)): >128 µg/mL
- MIC Escherichia coli (GC 4560) (Escherichia coli; Escherichia coli (GC 4560)): 32 µg/mL (≈ 23.7 µM)
- MIC Coagulase Negative Staphylococcus (GC 4547) (Staphylococcus sp.): 64 µg/mL (≈ 47.4 µM)
- MIC Coagulase Negative Staphylococcus (GC 4548) (Staphylococcus sp.): 64 µg/mL (≈ 47.4 µM)
- MIC Coagulase Negative Staphylococcus (GC 4549) (Staphylococcus sp.): 32 µg/mL (≈ 23.7 µM)
- MIC Coagulase Negative Staphylococcus (GC 4551) (Staphylococcus sp.): 64 µg/mL (≈ 47.4 µM)
- MIC Staphylococcus aureus (ATCC 29213) (Staphylococcus sp.): 64 µg/mL (≈ 47.4 µM)
- MIC Staphylococcus aureus (GC 1131) (Staphylococcus sp.): 64 µg/mL (≈ 47.4 µM)
- MIC Staphylococcus aureus (GC 3051) (Staphylococcus sp.): 64 µg/mL (≈ 47.4 µM)
- MIC Staphylococcus aureus (GC 3053) (Staphylococcus sp.): 128 µg/mL (≈ 94.7 µM)
- MIC Staphylococcus aureus (GC 4541) (Staphylococcus sp.): 64 µg/mL (≈ 47.4 µM)
- MIC Staphylococcus aureus (GC 4542) (Staphylococcus sp.): 64 µg/mL (≈ 47.4 µM)
- MIC Staphylococcus aureus (GC 4544) (Staphylococcus sp.): 64 µg/mL (≈ 47.4 µM)
- MIC Staphylococcus aureus (GC 4545) (Staphylococcus sp.): 64 µg/mL (≈ 47.4 µM)
- MIC Staphylococcus aureus-SMITH (GC 4543) (Staphylococcus sp.): 64 µg/mL (≈ 47.4 µM)
- MIC Staphylococcus haemolyticus (GC 4546) (Staphylococcus sp.): 64 µg/mL (≈ 47.4 µM)
- MIC Staphylococcus aureus (ATCC 29213) (Staphylococcus sp.; strain ATCC 29213): 64 µg/mL (≈ 47.4 µM)
- MIC Staphylococcus aureus (GC 1131) (Staphylococcus sp.; strain GC 1131): 64 µg/mL (≈ 47.4 µM)
- MIC Staphylococcus aureus (GC 3051) (Staphylococcus sp.; strain GC 3051): 64 µg/mL (≈ 47.4 µM)
- MIC Staphylococcus aureus (GC 3053) (Staphylococcus sp.; strain GC 3053): 128 µg/mL (≈ 94.7 µM)
- MIC Staphylococcus aureus (GC 4541) (Staphylococcus sp.; strain GC 4541): 64 µg/mL (≈ 47.4 µM)
- MIC Staphylococcus aureus (GC 4542) (Staphylococcus sp.; strain GC 4542): 64 µg/mL (≈ 47.4 µM)
- MIC Staphylococcus aureus (GC 4544) (Staphylococcus sp.; strain GC 4544): 64 µg/mL (≈ 47.4 µM)
- MIC Staphylococcus aureus (GC 4545) (Staphylococcus sp.; strain GC 4545): 64 µg/mL (≈ 47.4 µM)
- MIC Staphylococcus haemolyticus (GC 4546) (Staphylococcus sp.; strain GC 4546): 64 µg/mL (≈ 47.4 µM)
- MIC Coagulase Negative Staphylococcus (GC 4547) (Staphylococcus sp.; strain GC 4547): 64 µg/mL (≈ 47.4 µM)
- MIC Coagulase Negative Staphylococcus (GC 4548) (Staphylococcus sp.; strain GC 4548): 64 µg/mL (≈ 47.4 µM)
- MIC Coagulase Negative Staphylococcus (GC 4549) (Staphylococcus sp.; strain GC 4549): 32 µg/mL (≈ 23.7 µM)
- MIC Coagulase Negative Staphylococcus (GC 4551) (Staphylococcus sp.; strain GC 4551): 64 µg/mL (≈ 47.4 µM)
- MIC Staphylococcus aureus-SMITH (GC 4543) (Staphylococcus sp.; strain SMITH GC 4543): 64 µg/mL (≈ 47.4 µM)
- MIC Enterococcus avium (GC 4558) (Enterococcus sp.; Enterococcus avium (GC 4558)): 128 µg/mL (≈ 94.7 µM)
- MIC Enterococcus faecalis (ATCC 29212) (Enterococcus sp.; Enterococcus faecalis (ATCC 29212)): >128 µg/mL
- MIC Enterococcus faecalis (GC 4553) (Enterococcus sp.; Enterococcus faecalis (GC 4553)): >128 µg/mL
- MIC Enterococcus faecalis (GC 4554) (Enterococcus sp.; Enterococcus faecalis (GC 4554)): >128 µg/mL
- MIC Enterococcus faecalis (GC 6189) (Enterococcus sp.; Enterococcus faecalis (GC 6189)): >128 µg/mL
- MIC Enterococcus faecium (GC 2243) (Enterococcus sp.; Enterococcus faecium (GC 2243)): >128 µg/mL
- MIC Enterococcus faecium (GC 4556) (Enterococcus sp.; Enterococcus faecium (GC 4556)): >128 µg/mL
- MIC Enterococcus faecium (GC 4557) (Enterococcus sp.; Enterococcus faecium (GC 4557)): 64 µg/mL (≈ 47.4 µM)
- MIC Enterococcus faecalis (ATCC 29212) (Enterococcus sp.; strain ATCC 29212): >128 µg/mL
- MIC Enterococcus faecalis (GC 2242) (Enterococcus sp.; strain GC 2242): 128 µg/mL (≈ 94.7 µM)
- MIC Enterococcus faecium (GC 2243) (Enterococcus sp.; strain GC 2243): >128 µg/mL
- MIC Enterococcus faecalis (GC 2691) (Enterococcus sp.; strain GC 2691): >128 µg/mL
- MIC Enterococcus faecalis (GC 3059) (Enterococcus sp.; strain GC 3059): >128 µg/mL
- MIC Enterococcus faecalis (GC 4552) (Enterococcus sp.; strain GC 4552): >128 µg/mL
- MIC Enterococcus faecalis (GC 4553) (Enterococcus sp.; strain GC 4553): >128 µg/mL
- MIC Enterococcus faecalis (GC 4554) (Enterococcus sp.; strain GC 4554): >128 µg/mL
- MIC Enterococcus faecium (GC 4556) (Enterococcus sp.; strain GC 4556): >128 µg/mL
- MIC Enterococcus faecium (GC 4557) (Enterococcus sp.; strain GC 4557): 64 µg/mL (≈ 47.4 µM)
- MIC Enterococcus avium (GC 4558) (Enterococcus sp.; strain GC 4558): 128 µg/mL (≈ 94.7 µM)
- MIC Enterococcus faecalis (GC 6189) (Enterococcus sp.; strain GC 6189): >128 µg/mL
